Consider seven molecules from ChEMBL document CHEMBL1201862, “PubChem BioAssay data set” (2004).

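Following 48 hours of exposure in 96-well plates, responses at five concentrations were used to interpolate endpoints linearly. The concentration for 50% growth inhibition is given as GI50.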 Activity calls are given as the source filed them. No stated cut-off is given here; in the data, active = GI50 up to about 1.1 µM and inactive = higher.

Experiment in all cases: NCI tumour cell line growth inhibition, 48 h
In test [1] the test system is MDA-MB-435.
Test [2] relates to T47D.
Test [3] deals with SW-620.
The test system of test [4] is RXF 393.
Test [5] relates to ACHN.
Test [6] has as its system A549.
Test [7] deals with SK-MEL-28.
The test system of test [8] is PC-3.
The test system of test [9] is MCF7.
In test [10] the test system is SK-MEL-5.
Test [11] relates to DU-145.
The test system of test [12] is MDA-MB-231.
Test [13] relates to SNB-75.
Test [14] concerns NCI-H460.
The subject of test [15] is Hs-578T.
In test [16] the test system is SK-OV-3.
The test system of test [17] is UO-31.
The test system of test [18] is OVCAR-8.
For test [19], the system named is HL-60.
Test [20] concerns U-251.

With `CCOC(=O)N1c2ccccc2C(C)=CC(C)C1C` (configuration not stated), the GI50 in test [1] is 3.37 µM (inactive); in [2], 52.1 µM (inactive); in [3], 29.4 µM (inactive); in test [4], 11.3 µM (inactive); in [5] it was 49.7 µM (inactive); in test [6] it was 22.6 µM (inactive). Also, the GI50 in [7] was 35.9 µM (inactive); in [8], 55.8 µM (inactive); in test [9] it was 10.3 µM (inactive); in test [10] it was 12.5 µM (inactive); in test [11], 38.3 µM (inactive); in test [12] it was 22.9 µM (inactive). Also, the GI50 was 19.1 µM (inactive) in test [13]; 21.4 µM (inactive) in test [14]; 35.6 µM (inactive) in test [15]; 22.4 µM (inactive) in test [16]; 55.7 µM (inactive) in test [17]; 17.6 µM (inactive) in [18]. The GI50 in test [19] is 27.2 µM (inactive).

For `CC[C@@H]([C@H](O)c1ccccc1Cl)[N+](=O)[O-]`, the GI50 in test [1] is 25.8 µM (inactive); in test [2], > 100 µM (inactive); in [3], 42.9 µM (inactive); in test [4] it was > 100 µM (inactive); in test [5], > 100 µM (inactive); in test [6], > 100 µM (inactive). Moreover, the GI50 in test [7] is > 100 µM (inactive); in test [8] it was 61.4 µM (inactive); in [9], 16.4 µM (inactive); in test [10] it was > 100 µM (inactive); in test [11], > 100 µM (inactive); in test [12], > 100 µM (inactive). Further, the GI50 in test [20] is > 100 µM (inactive); in test [13], 65.6 µM (inactive); in test [14], > 100 µM (inactive); in [15], > 100 µM (inactive); in test [16], > 100 µM (inactive); in test [17] it was > 100 µM (inactive). Moreover, the GI50 in test [18] was > 100 µM (inactive); in test [19] it was 7.82 µM (inactive).

For the molecule `COc1ccc(C[C@@H]2NC[C@@H](O)[C@@H]2OC(C)=O)cc1`, the GI50 in test [1] was 0.0168 µM (active); in [2] it was 0.0227 µM (active); in test [3], 0.0166 µM (active); in [4], 0.00641 µM (active); in [5], 0.011 µM (active); in test [6], 0.0316 µM (active). The GI50 was 0.0206 µM (active) in test [7]; 0.0196 µM (active) in [8]; 0.0135 µM (active) in test [9]; 0.0104 µM (active) in [10]; 0.0191 µM (active) in [11]; 0.0196 µM (active) in test [12]. Moreover, the GI50 in test [20] was 0.0173 µM (active); in test [13], 0.0132 µM (active); in test [14], 0.0142 µM (active); in test [15], 0.0284 µM (active); in [16], 0.0169 µM (active); in [17], 0.0247 µM (active). Further, the GI50 is 0.0189 µM (active) in test [18] and 0.00374 µM (active) in [19].

Turning to `COC(=O)C(Cc1ccccc1)NC(=O)CSc1nnc(COc2ccc(Cl)cc2)n1-c1ccccc1` (configuration not stated), the GI50 in [1] is 19.1 µM (inactive); in test [2] it was 26.1 µM (inactive); in test [3] it was 35.9 µM (inactive); in test [4], 19.1 µM (inactive); in test [5], 16.4 µM (inactive); in test [6] it was 39.4 µM (inactive). For the same molecule, the GI50 in test [7] was 27.2 µM (inactive); in test [8] it was 22.8 µM (inactive); in [9], 23.4 µM (inactive); in [10], 17.1 µM (inactive); in test [11], 34.8 µM (inactive); in test [12], 18.6 µM (inactive). The GI50 was 18.5 µM (inactive) in test [20]; 23.8 µM (inactive) in test [13]; 16.5 µM (inactive) in test [14]; 26.7 µM (inactive) in test [15]; 15.8 µM (inactive) in test [16]; 1.83 µM (inactive) in test [17]. Further, the GI50 in test [19] is 20.6 µM (inactive).

In the case of `O=C(O)CCc1c2ccc(=O)c(O)c-2oc2c(O)c(O)ccc12`, the GI50 was 17.1 µM (inactive) in test [1]; > 100 µM (inactive) in [2]; 22.2 µM (inactive) in [3]; > 100 µM (inactive) in test [4]; 39.1 µM (inactive) in [5]; > 100 µM (inactive) in test [6]. Moreover, the GI50 was > 100 µM (inactive) in test [7]; > 100 µM (inactive) in test [8]; 14.8 µM (inactive) in test [9]; > 100 µM (inactive) in test [10]; > 100 µM (inactive) in test [11]; 20.6 µM (inactive) in test [12]. For the same molecule, the GI50 in test [20] was 30.1 µM (inactive); in test [13], 24.9 µM (inactive); in test [14], > 100 µM (inactive); in test [15] it was 14.2 µM (inactive); in test [16] it was > 100 µM (inactive); in test [17], > 100 µM (inactive). Also, the GI50 in test [18] was 54.6 µM (inactive); in test [19], 44.3 µM (inactive).

`O=C(O)C(O)C(O)C(O)C(=O)CO` (configuration not stated): the GI50 in [1], in test [2], in test [3], in test [4], in test [5] and in test [6] was > 100 µM (inactive) each time. Besides, the GI50 in test [7], in test [8], in test [9], in test [10], in test [11] and in test [12] was > 100 µM (inactive) throughout. Further, the GI50 in test [20], in test [13], in [14], in test [15], in [16] and in test [17] was > 100 µM (inactive) in each case. Moreover, the GI50 in test [18] and in test [19] was > 100 µM (inactive) each time.

With `COC(=O)CCC(C)[C@H]1CCC2C3CC[C@@H]4CC5(CC[C@]4(C)C3C[C@H](OC(C)=O)[C@@]21C)OOC1(CCCCC1)OO5` (some centres not stated), the GI50 in test [1] was 7.35 µM (inactive); in test [2] it was 2.75 µM (inactive); in test [4] it was > 100 µM (inactive); in test [5] it was 8.32 µM (inactive); in test [6] it was 9.77 µM (inactive); in test [7], 27.7 µM (inactive). The GI50 in test [8] was 6.55 µM (inactive); in [9], 8.69 µM (inactive); in test [10], 5.78 µM (inactive); in [11], 7.87 µM (inactive); in test [12] it was > 100 µM (inactive); in test [20], 6.62 µM (inactive). For the same molecule, the GI50 is 55.2 µM (inactive) in test [13]; 4.69 µM (inactive) in test [14]; 13.4 µM (inactive) in test [15]; > 100 µM (inactive) in [16]; 2.67 µM (inactive) in test [17]; 13.7 µM (inactive) in [18]. Also, the GI50 in test [19] is 2.49 µM (inactive).
